Among the test systems are DLD-1; DMS-114; DU-145; HOP-18; SNB-78; TK-10; XF498; LXFL 529; RXF 631.
What all share (experiment): DTP human tumour cell line panel, 48 h

The structures appear in SMILES notation.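 Briefly, cells in 96-well plates were exposed to five compound concentrations for 48 h, and endpoints were estimated by linear interpolation. At the GI50, growth is halved.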 Active and inactive are the calls of the source. No stated cut-off is given here; in the data, active = GI50 up to about 1.1 µM and inactive = higher.

In the case of `[N-]=[N+]=CC(=O)CCC(N)C(=O)O` (centres undefined), the GI50 in the experiment on DLD-1 was 1.02 µM (active); in the experiment with DMS-114 it was 1.87 µM (inactive); in the experiment on DU-145 it was 1.75 µM (inactive); in the experiment with HOP-18 it was 43.3 µM (inactive); with SNB-78, 4.25 µM (inactive); in the experiment on TK-10, 2.07 µM (inactive). The GI50 in the experiment on XF498 was 22 µM (inactive).
For `CC1=CC(O)C(O)C2(C)C1CC1OC(=O)C(O)C3C(C)C(O)C4(O)OCC13C42` (centres undefined), the GI50 was 135 µM (inactive) with DLD-1; 35.4 µM (inactive) with DMS-114; 155 µM (inactive) in the experiment with HOP-18; 39.4 µM (inactive) in the experiment on SNB-78; 53.1 µM (inactive) in the experiment on XF498.
For `O=C(O)c1cccc(OCCO)c1`, the GI50 with DU-145 and in the experiment on TK-10 was > 100 µM (inactive) throughout.
On to `CCNC(=O)C(C)C1CCC2(C)C=CC(=O)C(C)=C2C1O` (centres undefined), for which the GI50 in the experiment on DLD-1, in the experiment on DMS-114, in the experiment on HOP-18, in the experiment on SNB-78 and with XF498 was > 100 µM (inactive) throughout.
`CC(=O)NC(CCCCNC(=O)OC(C)(C)C)C(=O)O` (centres undefined): the GI50 in the experiment on DU-145 and with TK-10 was > 100 µM (inactive) each time.
As to `CC(C)(C)[Si](C)(C)OCCCC#CCO`, the GI50 is > 100 µM (inactive) in the experiment with DLD-1; > 100 µM (inactive) in the experiment with DMS-114; < 0.01 µM (active) with HOP-18; > 100 µM (inactive) in the experiment with LXFL 529; > 100 µM (inactive) in the experiment on RXF 631; > 100 µM (inactive) with SNB-78. The GI50 in the experiment with TK-10 and in the experiment on XF498 was > 100 µM (inactive) each time.
Turning to `COc1ccc(NC(=S)NNC(=O)c2nsc3ccccc23)cc1`, the GI50 in the experiment with DMS-114 is 32.1 µM (inactive); with LXFL 529, 39.4 µM (inactive); with SNB-78, 41.7 µM (inactive); in the experiment on TK-10, 43.4 µM (inactive).
As to `Clc1ccc(C2SCc3nc4ccccc4n32)cc1` (centres undefined), the GI50 in the experiment with DMS-114 was 5.57 µM (inactive); in the experiment on HOP-18, 23.3 µM (inactive); in the experiment with LXFL 529, 18.7 µM (inactive); with RXF 631, 29.2 µM (inactive); in the experiment on SNB-78, 29.9 µM (inactive); in the experiment with TK-10, 30.1 µM (inactive). The GI50 in the experiment on XF498 is 8.2 µM (inactive).
As to `C=C1C(=O)O[C@@H]2/C=C(\C)CC/C=C(\C)CC[C@@]12O`, the GI50 with DU-145 was 1.97 µM (inactive); in the experiment on TK-10 it was 1.73 µM (inactive).
The matching figures for `O=C1OC(C2Cc3ccc4c(c3C2=O)CCC4)c2ccccc21` (centres undefined): 91.8 µM (inactive) and > 100 µM (inactive).
`Cc1ccc(C=C(C(=O)O)C(=O)O)o1`: the GI50 with DU-145 and in the experiment on TK-10 was > 100 µM (inactive) in each case.
In the case of `Cn1c(=O)oc2cc(C(O)CN3CCN(Cc4ccc5c(c4)OCO5)CC3)ccc21` (centres undefined), the GI50 in the experiment with DU-145 and in the experiment with TK-10 was > 100 µM (inactive) in each case.
Turning to `Oc1nc2c(c(-c3ccccc3Cl)n1)COC/C2=C\c1ccccc1Cl`, the GI50 in the experiment with DU-145 and in the experiment with TK-10 was > 100 µM (inactive) each time.
Take `CCCCCCCCCCCCCCCCNc1nc(=O)n(C2CC(O)C(CO)O2)cc1F` (centres undefined): the GI50 in the experiment with DU-145 was 10 µM (inactive); with TK-10 it was 11.9 µM (inactive).
Take `COc1cc2c(oc(=O)c3cc4cc([Si](C)(C)C)oc4c(OC)c32)c2cccc(O)c12`: the GI50 with DLD-1, in the experiment on DMS-114, in the experiment on HOP-18, in the experiment on LXFL 529, in the experiment with SNB-78 and with TK-10 was > 100 µM (inactive) throughout. Also, the GI50 with XF498 is > 100 µM (inactive).
`COc1ccc(C[C@H](N)C(=O)N2C[C@@H](CO)C[C@@H](n3cnc4c(N(C)C)ncnc43)C2)cc1`: the GI50 in the experiment on DLD-1, with DMS-114, in the experiment on HOP-18, with LXFL 529, in the experiment on SNB-78 and in the experiment with TK-10 was > 100 µM (inactive) each time.
As to `COc1cc(C=O)cc(O)c1O`, the GI50 in the experiment on DLD-1, in the experiment on DMS-114, with LXFL 529, in the experiment with SNB-78 and with TK-10 was > 100 µM (inactive) throughout.
Turning to `COc1ccc2c(c1)c1c(n2CCN2CCCCC2)-c2cccc(OC)c2CC1`, the GI50 in the experiment on DU-145 was 32 µM (inactive); in the experiment on TK-10, 15 µM (inactive).
Turning to `O=C1OC2CC=CC1C2` (centres undefined), the GI50 with DLD-1, in the experiment on DMS-114, in the experiment on HOP-18, in the experiment on SNB-78 and in the experiment with XF498 was > 100 µM (inactive) in each case.
Regarding `Cc1cn(C2CC(O)C(Cn3cc(Cn4nc(Br)c(=O)[nH]c4=O)nn3)O2)c(=O)[nH]c1=O` (centres undefined), the GI50 in the experiment on DU-145 and in the experiment on TK-10 was > 100 µM (inactive) in each case.
Regarding `C[N+](C)(CCO)CCN1c2ccccc2Sc2ccccc21`, the GI50 in the experiment with DU-145 and in the experiment with TK-10 was > 10 µM (inactive) each time.
`CSCCC(NOC(=O)Cc1ccccc1)P(=O)(O)c1ccccc1` (centres undefined): the GI50 in the experiment on DU-145 and with TK-10 was > 100 µM (inactive) throughout.
Take `CN(C)C(=O)/N=C1\SC(=N\c2ccccc2)/C(=N/c2ccccc2)N1c1ccc([N+](=O)[O-])cc1`: the GI50 in the experiment with DU-145 is > 100 µM (inactive).
Take `CC(C)[C@](O)(C(=O)OCC1CC[N+]2([O-])CC[C@@H](O)C12)[C@H](C)O` (some centres undefined): the GI50 in the experiment on DLD-1 is > 375 µM (inactive); in the experiment on DMS-114 it was > 375 µM (inactive); in the experiment on HOP-18, 105 µM (inactive); with SNB-78 it was > 375 µM (inactive); in the experiment on XF498, > 375 µM (inactive).
For `CSC1=C(SC)C(=O)c2cn(C)c(=O)cc2C1=O`, the values for the GI50 in the experiment on DU-145 and with TK-10 were 8.47 µM (inactive) and 2.33 µM (inactive), respectively.
As for `CCOC(=O)CN1CCS/C1=N/C#N`, the GI50 in the experiment on DLD-1, with DMS-114, in the experiment with HOP-18, in the experiment on SNB-78 and in the experiment with XF498 was > 100 µM (inactive) throughout.
Turning to `Nc1ncnc2c1nnn2C1OC(CO)C(O)C1O` (centres undefined), the GI50 in the experiment on DLD-1 was 1.36 µM (inactive); with DMS-114, 3.64 µM (inactive); in the experiment on HOP-18, 2.69 µM (inactive); with SNB-78 it was 37.6 µM (inactive); with XF498, 6.98 µM (inactive).
In the case of `CC(=O)Nc1ccc2oc(=O)c3ccccc3c2c1`, the GI50 in the experiment with DU-145 is > 100 µM (inactive).
As for `Nc1nc(=O)[nH]cc1F` [FLUCYTOSINE], the GI50 in the experiment with DU-145 and in the experiment with TK-10 was > 100 µM (inactive) in each case.

These data come from ChEMBL document CHEMBL1201862, “PubChem BioAssay data set” (2004).
